How the values were obtained:
[1] = tested on: MCF10AT1, MCF10-DCIS, MCF10CA1a versus MCF10A cells; assay: MTT proliferation, MCF10A progression series; format: cell-based, human; settings: 48-h treatment
Procedure: Figure 5 Oncogene induction enhances sensitivity of cancer cells to NSC-105808. (a-e) Graphs showing proliferation of indicated cell lines in response to a 48-h treatment with the indicated concentrations of NSC-105808. Proliferation relative to cells treated with vehicle alone was determined by the 3-(4,5-dimethylthiazol-2-yl)-2,5-diphenyltetrazolium bromide (MTT) assay. Each value represents the mean±s.e.m. from three independent experiments. (a) Proliferation of control pancreatic epithelial cells DT-PD59 and transformed pancreatic cancer cells AsPC-1 and PANC-1. (b) Proliferation of normal breast epithelial cells MCF10A and breast cancer cells Hs578T and BT549. (c) Proliferation of MCF10A cells with or without H-Ras expression. H-Ras was induced with doxycycline (2 μg/ml). […]
Cell proliferation was measured by 3-(4,5-dimethylthiazol-2-yl)-2,5-diphenyltetrazolium bromide (Sigma) reduction (Supplementary Materials and Methods).
To determine the cell proliferation rate, 1000 cells/well were seeded in a 96-well plate in a total volume of 100 µl in triplicate in each experiment. […] Plates were read at 490 nm and 650 nm (background) in a
microplate reader (Molecular Devices). After the subtraction of background, cell viability was calculated as fold change relative to control cells.

FANCD2−/− cells = assay: Colony formation with cisplatin in FANCD2-deficient cells; format: cell-based; settings: cisplatin 0.3125 µM, NSC-105808 […]
Procedure: (§1) Figure 4 NSC-105808 inhibits HR repair and DSB end resection. (a) Analysis of HR efficiency with the DR-green fluorescent protein (GFP) assay. Representative images of flow cytometry analysis and bar graph showing percentage of GFP cells from at least three independent experiments. Each value represents the mean±s.d. (b, c) Analysis of RPA phosphorylation in U2OS cells treated with NSC-105808 (2 h, 0.3 μM) and/or camptothecin (CPT; 2 h, 1 μM). (b) Representative images of cells subjected to immunofluorescent staining of p-RPA and bar graph showing percentage of cells with positive p-RPA staining from three independent experiments. Each value represents the mean±s.d. (c) Western blot analysis of chromatin fraction with the indicated antibodies. (d) Analysis of colony formation by FANCD2 (+/+) and FANCD2 (−/−) cells treated with cisplatin and/or NSC-105808. Each value is relative to the untreated control group of each cell line. The graph represents the mean±s.e.m. from three independent experiments. *P<0.01.
DNA2 knockdown cells were seeded at low density; cells were then left for 2 weeks to allow colonies to form. Cells were stained with 2% methylene blue/50% ethanol, and colonies containing 50 or more cells were counted. […] Colonies were fixed, stained, and scored ten days after treatment.

[2] = tested on: U2OS cells containing DR-GFP reporter; assay: DR-GFP gene conversion (HR) reporter assay; format: cell-based, human; settings: 24-h treatment
Procedure: as §1
The DR-green fluorescent protein, pCAGGS and pCBASce plasmids were kindly provided by Dr Maria Jasin (Memorial Sloan-Kettering Cancer Center, New York, NY, USA). […]
The GFP expressing plasmid (pEGFP-C1) was used for transfection efficiency control. […] Efficiency of HR and SSA was calculated by normalizing I-SceI-induced GFP expression with EGFP transfection-induced GFP expression. […]

U2OS cells = assay: Cell cycle distribution (BrdU, flow cytometry); format: cell-based, human; settings: highest tested concentration 0.6 μM, 24 h; slight decrease of G1, increase of G2
Procedure: Apoptosis was measured by flow cytometry using the Annexin V FITC assay kit based on the protocol from the manufacturer (Invitrogen). For BrdU (bromodeoxyuridine (5-bromo-2′-deoxyuridine)) analysis, after treatments, cells were labeled with BrdU (Sigma) for 30 min before fixation with 70% cold ethanol (−20 °C). The next day, cells were washed with cold phosphate-buffered saline and incubated with 2 M HCl for 5 min at room temperature. After adjusting the pH with 0.1 M sodium borate (pH 8.5), cells were incubated in 1% bovine serum albumin with 0.1% Triton X-100 for 30 min and mouse anti-BrdU antibody (1:400) for 1 h to detect BrdU labeling. After washing, cells were incubated with secondary antibody (fluorescein isothiocyanate 1:400) for 30 min. […] For fluorescence-activated cell sorting analysis, the percentage of cells with positive BrdU staining in each phase of the cell cycle was quantitated with the CellQuest software and ModFit software (Verity Software House Inc., Topsham, ME, USA).
Figure S7: Cell cycle distribution of U2OS cells upon treatment with NSC-105808. (a) U2OS cells were treated with DMSO or the indicated concentration of NSC-105808 for 24 hrs followed by a pulse of BrdU (10 µM) for 30 minutes and then analyzed by flow cytometry. […] (c) Quantitation of the G1 cell population. […]

NC1=C(Br)C(=O)c2ncccc2C1=O [NSC-105808, 6-amino-7-bromoquinoline-5,8-dione]
Sensitivity of cell lines with oncogene activation compared with MCF10A control [1]: more sensitive
Cisplatin sensitivity of FANCD2−/− cells (colony formation) (FANCD2−/− cells): lessened the cisplatin sensitivity
DSB repair by gene conversion [2]: significantly reduced
Impact on cell cycle distribution (U2OS cells): only a mild impact

From PMC5520492, “Inhibition of DNA2 nuclease as a therapeutic strategy targeting replication stress in cancer cells” (Oncogenesis, 2017)
